Target: Egl nine homolog 1 (Homo sapiens, UniProt Q9GZT9)
Assay: In Vitro Inhibition Assay: In vitro tests for determination of the activity and selectivity of HIF prolyl 4-hydroxylase inhibitors. Hydroxylated HIF bonds specifically to the von Hippel-Lindau protein-elongin B-elongin C complex (VBC complex). This interaction occurs only if HIF is hydroxylated on a conserved prolyl radical. It is the basis for the biochemical determination of HIF prolyl hydroxylase activity. The test is carried out as described [Oehme F., Jonghaus W., Narouz-Ott L., Huetter J., Flamme I., Anal. Biochem. 330 (1), 74-80 (2004)].

Sequence of Egl nine homolog 1 (Q9GZT9 whole entry, looked up): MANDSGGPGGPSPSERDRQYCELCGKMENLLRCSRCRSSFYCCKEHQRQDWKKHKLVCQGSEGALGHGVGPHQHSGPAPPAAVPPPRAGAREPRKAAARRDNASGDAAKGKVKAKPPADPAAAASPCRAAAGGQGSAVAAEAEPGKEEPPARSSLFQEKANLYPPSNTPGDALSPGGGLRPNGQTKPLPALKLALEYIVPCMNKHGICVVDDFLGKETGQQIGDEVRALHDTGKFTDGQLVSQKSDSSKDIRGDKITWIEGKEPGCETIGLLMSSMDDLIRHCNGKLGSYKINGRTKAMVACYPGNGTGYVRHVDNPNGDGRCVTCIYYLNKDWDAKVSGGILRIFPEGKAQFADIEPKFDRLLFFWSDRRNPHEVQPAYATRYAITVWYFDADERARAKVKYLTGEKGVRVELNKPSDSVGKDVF

With `N#Cc1cn(-c2c[nH]n(-c3cc(N4CC(F)(F)C4)ncn3)c2=O)cn1` the IC50 was 0.09 µM.

Source: ChEMBL document CHEMBL3639310, “Substituted dihydropyrazolones and their use” (2013)
